The target in one data set is human recombinant PDE5 (Homo sapiens, UniProt O76074). The data set can be described thus: Inhibitory effect on cGMP-PDE (PDE5 IC50, one-step assay). Type of data set: biochemical. The note with it: human recombinant PDE5, 0.15 μM 8-[H3]-cGMP, 30 minutes incubation. As to the method: The compounds of structural formula (I) were tested for an ability to inhibit PDE5. The ability of a compound to inhibit PDE5 activity is related to the IC50 value for the compound, i.e., the concentration of inhibitor required for 50% inhibition of enzyme activity. The IC50 value for compounds of structural formula (I) were determined using recombinant human PDE5.
cGMP-PDE activity of compounds of the present invention was measured using a one-step assay adapted from Wells et al., Biochim. Biophys. Acta, 384, 430 (1975). The reaction medium contained 50 mM Tris-HCl, pH 7.5, 5 mM magnesium acetate, 250 μg/ml 5′-Nucleotidase, 1 mM EGTA, and 0.15 μM 8-[H^3]-cGMP. Unless otherwise indicated, the enzyme used was a human recombinant PDE5 (ICOS Corp., Bothell, Wash.).
Compounds of the invention were dissolved in DMSO finally present at 2% in the assay.

Compound `C[C@H](NC(=S)N1CCc2c([nH]c3ccccc23)[C@H]1c1ccc2c(c1)OCO2)c1ccccc1` [Example 27] gave a melting point of 117 to 121 °C. The IC50 on human recombinant PDE5 turned out to be 196 nM.

Source of the values: patent US7122554B2, “Carboline derivatives” (Lilly Icos LLC., priority 2001, dated 2006).
